Source: patent US20220346372A1, “Compositions For Preparing Microemulsion, Microemulsion, Method For Producing Composition And Microemulsion, And Use Of Mircoemulsion” (Moresco Corporation, priority 2019, published 2022)

Experiment: LogP, flask shaking method (OECD guideline, n-octanol/water)
Assay type: physicochemical
Details: 1-octanol-water partition coefficient; for logP: read-out: LogP of the poorly water-soluble functional component
Text: Here, LogP is a common logarithmic value of a 1-octanol-water or 1-octanol-buffer partition coefficient of a chemical substance. In the present specification, LogP is a value measured by a flask shaking method based on OECD GUIDELINE FOR THE TESTING OF CHEMICALS, “Partition Coefficient (n-octanol/water): Shake Flask Method”. A chemical substance having a higher LogP has a higher degree of lipophilicity. In other words, a chemical substance having a higher LogP has a higher degree of fat-solubility.

## Cc1c(C)c2c(c(C)c1O)CCC(C)(CCCC(C)CCCC(C)CCCC(C)C)O2 (racemic) [tocopherol, DL-α-Tocopherol]
  LogP of the poorly water-soluble functional component: 8.84

## CC1CCC(C(C)C)C(O)C1 (single isomer, unassigned; (-)) [menthol, (−)-Menthol]
  logP: 2.68

## COC1=C(OC)C(=O)C(C/C=C(\C)CC/C=C(\C)CC/C=C(\C)CC/C=C(\C)CC/C=C(\C)CC/C=C(\C)CC/C=C(\C)CC/C=C(\C)CC/C=C(\C)CCC=C(C)C)=C(C)C1=O [CoQ10, coenzyme Q10]
  logP: 11

## Clc1ccc(C(c2ccc(Cl)cc2)C(Cl)(Cl)Cl)cc1 [DDT, dichlorodiphenyltrichloroethane]
  logP: 6.5

## COc1cc(/C=C/C(=O)CC(=O)/C=C/c2ccc(O)c(OC)c2)ccc1O [curcumin, Curcumin]
  logP: 3.62

## COc1ccc2c(c1)c(CC(=O)O)c(C)n2C(=O)c1ccc(Cl)cc1 [indomethacin, Indomethacin]
  LogP of the poorly water-soluble functional component: 4.25
  logP: 4.25

## CC(=O)O[C@H]1C(=O)[C@@]2(C)[C@H]([C@H](OC(=O)c3ccccc3)[C@]3(O)C[C@H](OC(=O)[C@H](O)[C@@H](NC(=O)c4ccccc4)c4ccccc4)C(C)=C1C3(C)C)[C@]1(OC(C)=O)CO[C@@H]1C[C@@H]2O [paclitaxel, Paclitaxel]
  logP: 3.2

## C[C@]12CC[C@H]3[C@@H](CCC4=CC(=O)CC[C@@]43C)[C@@H]1CC[C@@H]2O [testosterone, Testosterone]
  logP: 2.99

## Tocotrienol
  LogP of the poorly water-soluble functional component: 7.68
